Data on two compounds can be found in patent US8785399B2, “Antibacterial peptides” (Spiderbiotech S.R.A., priority 2008, dated 2014).

Values after ≈ are worked out from the molar mass of the structure shown. Positions of bridges follow the written chain, without caps; N, C: chain ends. Non-standard residues stand in square brackets, D forms with d. Residues, ends and D or L forms follow the SMILES beside them. Chains are numbered I, II in the order given. Aoc = NCCCCCCCC(=O)O Bounds are passed on as bounds.

One data set has as its system E. coli EC47. The class given is cell-based, Escherichia coli. The protocol:
Test and reference compounds, ID24 and colistin sodium methanesufonate (CMS) respectively, were dissolved in 0.1 M phosphate-buffered saline pH 6.9, at the required drug concentrations. Solutions were made just before administration, and stored at 4° C. until the end of scheduled treatments, ID24 MIC value on E. coli EC47 strain is 2 ug/mL [MIC was determined by the broth microdilution method in Muller Hinton medium (NCCLS guidelines), using bacterial inoculum of approximately 10^5 CFU/mL].

Another data set has as its system Shigella. The data set can be described thus: MIC vs clinical isolates, Shigella. In kind it is cell-based. Conditions: Shigella strain ND024108. The protocol:
(§1) Determination of MIC. MICs were determined in MHB by the broth microdilution methodology, according to CLSI procedure (formerly NCCLS, Ref. 11) by using final bacterial inocula of 1-5×10^5 CFU/mL. Assays were performed in sterile 96-well microtiter plates with round bottom wells (Corning Costar). Plates were incubated at 37° C. and read after 20-24 h. MIC was defined as the lowest drug concentration causing complete suppression of visible bacterial growth. All compounds were dissolved in (5% v/v DMSO).
(§2) These compounds were tested against a large panel of Gram-negative clinical isolates and the relative MIC values were reported in Table 5 (parts 1-3)

A short description of data set [1]: In vitro cytotoxicity, MTT dye reduction assay, HeLa. The class given is cell-based. Conditions: human, HeLa cells (human epithelial carcinoma). The protocol: (§3) HeLa (Human epithelial carcinoma cell line), HepG2 (Human hepatocellular liver carcinoma cell line) and HaCat (human keratinocyte) were grown to confluence and then plated at 20,000, 12,500 and 30,000 cells per well (the optimal cell count for each cell line has been previously determined). After 24 hours, ID24 in DMEM without FBS was added at concentration ranging from 800 and 100 ug/ml. As positive controls 100 uL of cells washed with medium without serum that represent 100% viability and, as negative, 100 uL medium without serum were also added. After 24 hours of incubation at 37° C. in a 5% v/v CO2 atmosphere, 10 ul MTT Reagent [3-(4,5-dimethylthiazol-2-yl)-2,5-diphenyl […] bromide, final concentration 0.5 mg/mL) was added to each well and incubated for 2 to 4 hours. Solubilization of formazan, formed by metabolic reduction of MTT, was obtained using the stop mix solution (10% w/v sodium dodecyl sulphate, 45% v/v dimethyl formamide, adjusted to pH 4.5 with glacial acetic acid). The plates were read in a microplate spectrophotometer. (Biorad, Benchmark plus). Cultures exposed to ID24 or exposed to the medium alone were measured spectrophotometrically at dual wave-length (565-650 nm). The experiment was carried out in three replicates.
For orientation: Tetrazolium assays rely on reduction of a dye to a coloured formazan, in cell work by metabolically active cells.

Another data set deals with Klebsiella pneumoniae. The class given is cell-based. The protocol:
as §1, §2

The subject of the next data set is Serratia marcescens. The class given is cell-based. The protocol: as §1, §2
The next data set relates to Pseudomonas aeruginosa. The class given is cell-based. The protocol: as §1, §2
The subject of the next data set is Enterobacter cloacae. In kind it is cell-based. The protocol:
as §1, §2

For the next data set, the system named is Proteus mirabilis. The class given is cell-based. The protocol: as §1, §2
A further data set relates to Escherichia coli. In kind it is cell-based. How it is done:
as §1, §2

The subject of a further data set is Acinetobacter baumannii. In kind it is cell-based. How it is done: as §1, §2
Data set [2] relates to Stenotrophomonas maltophilia. In kind it is cell-based. How it is done: as §1, §2
The test system of a further data set is Acinetobacter iwoffi. The class given is cell-based. The protocol:
as §1, §2

Another data set deals with Klebsiella oxytoca. The class given is cell-based. How it is done: as §1, §2
A short description of data set [3]: In vitro cytotoxicity, MTT dye reduction assay, HepG2. The class given is cell-based. Conditions: human, HepG2 cells (human hepatocellular liver carcinoma). How it is done: as §3
The next data set relates to E. coli ATCC 25922. The data set can be described thus: MIC by broth microdilution, E. coli reference strain. In kind it is cell-based, Escherichia coli. Conditions: Table 4. How it is done: as §1
All natural aminoacids have been divided into three groups based on their chemical-physical properties. A total amount of 27 minilibraries, each one containing six peptide in equimolar amounts, were obtained and assayed against E. coli ATCC 25922 as reference strain. MIC (Minimum Inhibitory Concentration) is defined as the lowest concentration inhibiting 100% of visible growth.

A short description of data set [4]: In vitro cytotoxicity, MTT dye reduction assay, HaCat. The class given is cell-based. The following applies: human, HaCat cells (human keratinocytes). The protocol:
as §3

The next data set in a line: In vivo acute toxicity. Also on record: species or system CD1 mice. Conditions: for symptoms and behavioural alterations (Irwin Test): female CD1 mice. The protocol: 9-10 weeks female CD1 mice (Charles River Lab. Italia s.r.l. Via Indipendenza, 11-23885 Calco (LC), Italy), weighing on average 28.23 g on the day of experiment were used. Mice were housed for 3 days in a temperature and humidity controlled room before starting experiment, and were fed with standard laboratory chow and water ad libitum.
ID24 was dissolved and sonicated in 0.9% w/v NaCl sterile solution (Sigma-Aldrich) for human administration at the dose concentrations 20 and 40 mg/kg. Compound preparation was conducted just before administration.
Two doses of ID24 were administered with a single intraperitoneal injection to mice: 20 mg/kg and 40 mg/kg. Five animals were treated with each dose of antibiotic. Adverse symptoms were monitored daily for 7 days after injection.
Survivals and clinical/behavioural signs were recorded daily for 14 days.
Main behavioural parameters and clinical signs provided by Irwin Test (Ref. 13).

Data set [5] deals with Pseudomonas aeruginosa ATCC 27853. The data set can be described thus: MIC by broth microdilution, P. aeruginosa reference strain. The following applies: Table 4. The class given is cell-based. How it is done:
as §1
These peptides were synthesized individually, in order to assay the activity of each sequence.
On the technique in general: In broth dilution the organism is exposed to a series of concentrations in liquid medium.

Data set [6] concerns P. aeruginosa ATCC 27853 24-hours biofilm. In kind it is cell-based, Pseudomonas aeruginosa. Conditions: ATCC 27853, 4 h. How it is done: An exponential phase inoculum of Pseudomonas aeruginosa ATCC 27853 of approximately 1×10^7 CFU/mL was poured into a reagent reservoir of Innovotech plates for MBEC™ High-throughput assay (Innovotech Inc., Edmonton, Canada). 22 mL of inoculum were added to the trough and the peg lid was placed onto. The device was placed on the shaking incubator at 80 rpm in a humidified box at 37° C.
After 24 hours of incubation, the pegs were rinsed into a plate containing 200 uL of physiological solution to remove loosely adherent planktonic cells from the biofilm and then were put in a microplate containing 200 uL of different antibiotic solutions serially diluted in TSB.
Following 4 hours of contact and incubation at 37° C. on the shaking incubator, the peg lid was removed from the trough and submersed in a rinse plate for 2 minutes.
Then a new microtitre with saline solution containing the sample pegs was put in the tray of the ultrasonic cleaner and sonicated for 30 minutes to disrupt biofilm from the surface of the 96 pegs.
Duplicate 0.01 or 0.005 mL aliquots of ten fold serial dilution of each well, were spread on MHA plate and colonies were read for viable cell counting after 24 hours of incubation.

The test system of another data set is fresh human erythrocytes. The class given is cell-based. The protocol: The haemolysis assay was adapted from the method of Shin et al. (Ref. 12). Fresh human erythrocytes were used to test the haemolytic activities of the peptides. Whole blood was collected in a sterile tube with a 4% w/v sodium citrate solution (in a 1:10 ratio sodium citrate:whole blood), put in ice and centrifuged at 1000 g for 5 minutes at 4° C.
The supernatant, including the leucocytes above the erythrocyte pellet, was removed carefully and discarded. Intact erytrocytes were washed three times with 2 volumes (1 mL) of prechilled pyrogen-free saline (PBS 1×). Erythrocyte suspensions were adjusted to 0.8% (8 ul in 1 mL or 160 uL in 20 mL) of PBS 1×. […]
Subsequently, intact erythrocyte were pelletted by centrifugation at 1000 g for 5 minutes at 4° C. One hundred microliters of supernatant from each well was transferred accordingly to a new 96-well microtiter plate, and the amount of haemoglobin released into the supernatant was determined by reading the absorbance at 414 nm against a reference wavelength of 490 nm. […]
The haemolysis was determined by two different assays as described in Example VIII. In Tables 7-9 all haemolysis percentage values, determined by UV-VIS spectrophotometry, are reported. […]

[7] abbreviates: IP administration, up to the highest dose of 40 mg/kg.

`CC[C@H](C)[C@H](NC(=O)[C@H](CCCCN)NC(=O)[C@H](CCCCN)NC(=O)[C@@H](N)Cc1c[nH]c2ccccc12)C(=O)N[C@@H](CCCNC(=N)N)C(=O)N[C@H](C(=O)N[C@@H](CCCNC(=N)N)C(=O)N[C@@H](CC(C)C)C(=O)N[C@@H](CO)C(=O)N[C@@H](C)C(=O)NCCCC[C@H](NC(=O)[C@H](C)NC(=O)[C@H](CO)NC(=O)[C@H](CC(C)C)NC(=O)[C@H](CCCNC(=N)N)NC(=O)[C@@H](NC(=O)[C@H](CCCNC(=N)N)NC(=O)[C@@H](NC(=O)[C@H](CCCCN)NC(=O)[C@H](CCCCN)NC(=O)[C@@H](N)Cc1c[nH]c2ccccc12)[C@@H](C)CC)C(C)C)C(=O)NCCCCCCCC(N)=O)C(C)C` [ID24, (H-W-KKIRVRLSA)2-Lys-8-Aoa-NH2] (I: H-WKKIRVRLSAK[Aoc]-NH2 / II: H-WKKIRVRLSA; amide I:11-II:C): the “MIC value on E. coli EC47 strain” value against E. coli EC47 came out at 2 mg/L (≈ 0.724 µM). Besides, the MIC (as a rule, the least concentration at which growth counts as inhibited) is 4 mg/L (≈ 1.45 µM) with Shigella, greater than 128 mg/L against Serratia marcescens, greater than 128 mg/L against Proteus mirabilis and 32 mg/L (≈ 11.6 µM) against Acinetobacter iwoffi. For the same compound, the CC50 – broadly, the concentration that lowers cell viability or growth by half – at 24 h in [1] was 0.156 µM; in data set [1] (HeLa, 24 hours incubation, MTT, read-out: CC50 ID24) it was 430 mg/L; in data set [3] it was 0.078 µM; in data set [3] (HepG2, 24 hours incubation, MTT, read-out: CC50 ID24) it was 215 mg/L; in data set [4], 0.16 µM; in data set [4] (HaCat, 24 hours incubation, MTT, read-out: CC50 ID24) it was 442 mg/L. The “MIC Range” value with Klebsiella pneumoniae was 4 to 16 mg/L; with Pseudomonas aeruginosa, 8 to 16 mg/L; in the data set with Enterobacter cloacae, 4 to 16 mg/L; against Proteus mirabilis, greater than 128 mg/L; with Escherichia coli, 4 to 32 mg/L; in the data set on Acinetobacter baumannii, 8 to 16 mg/L. In addition, the entries for the “MIC Range” value (in [2]; against Klebsiella oxytoca) were 8 to 32 mg/L and 16 to 32 mg/L, respectively. Besides, the “MIC (ug/mL) E. coli” value with E. coli ATCC 25922 was determined as 4 µg/mL (≈ 1.45 µM). Further, the “symptoms and behavioural alterations (Irwin Test)” value in “In vivo acute toxicity” (20 mg/kg single intraperitoneal injection) and in “In vivo acute toxicity” (40 mg/kg single intraperitoneal injection) was “no behavioural alterations” each time. Besides, in the data set “In vivo acute toxicity” (setting [7]), the adverse symptoms result was “No adverse symptoms”. Moreover, the deaths entry in the data set “In vivo acute toxicity” (setting [7]) is on record as “no deaths”. The “MIC (ug/mL) P. aeruginosa” value in data set [5] turned out to be 32 µg/mL (≈ 11.6 µM). Moreover, in [6], the “percentage of inhibition of bacteria biofilm” value is on record as 88.7-99.9%.

Triton X 100: in the data set on fresh human erythrocytes, the “Haemolysis, %” value stood at 100.0%.
